According to patent publication US9566351B2, “Molecular containers and methods of making and using same” (University of Maryland, College Park, priority 2010, dated 2017):
Read-outs that look alike come from different tables or passages of the source.

How the values were obtained:
hERG = target: T1, hERG (Homo sapiens, UniProt Q12809); settings: transfected HEK-293 cells; HP-β-CD up to 4.2 mg/mL; cited from earlier work
T1 construct: host or cells: transfected HEK-293 cells

[1] = tested on: S. typhimurium strain TA1535; test: Ames test, strain TA1535; settings: −S9
TA100 [2] = test: Ames test, strain TA100; settings: −S9
TA1537 strain = test: Ames test, strain TA1537; settings: +S9
TA98 strain = settings: Salmonella typhimurium, 10 μg/plate
TA100 [3] = settings: Salmonella typhimurium, 10 μg/plate
[4] = tested on: S. typhimurium strain TA1535; settings: Salmonella typhimurium, 10 μg/plate
[5] = clinical evaluation; cited from earlier work
HepG2 [6] = test: AK (adenylate kinase) release cytotoxicity assay, HepG2; format: cell-based, human; settings: 1 mM, untreated population 60%
HEK293 [7] = settings: human, 48 h, 1 mM
HepG2 [8] = settings: human, 48 h, 1 mM
HEK293 [9] = settings: human, 48 h, 1 mM; remark: listed apart in the source
[10] = Motor1 toward drug; 1:1 inclusion complex; Ka=Slope/[S0(1−Slope)]
[11] = Motor2 toward drug; 1:1 inclusion complex; Ka=Slope/[S0(1−Slope)]
MCF-7 = test: In vitro bioactivity of Paclitaxel complexed with Motor1, MCF-7; format: cell-based; settings: Paclitaxel 0.6 mM complexed, Paclitaxel 0.002 mM alone, Motor1 5 mM alone
[12] = drug with Motor1; 20 mM sodium phosphate buffer (pH=7.4); phase diagram
Hela = test: In vitro bioactivity of Paclitaxel complexed with Motor1, Hela; format: cell-based; settings: Paclitaxel 0.6 mM complexed, Paclitaxel 0.002 mM alone, Motor1 5 mM alone
[13] = aqueous solution; cited from earlier work
in vivo [14] = settings: Swiss Webster, mouse, iv, plasma concentration
SK-OV-3 cells = settings: ABZ formulated in ethanol; cited from earlier work
[15] = tested on: SKHEP-1 (human liver adenocarcinoma) xenografts; settings: ABZ in sesame oil; xenografts on the flank of mice; cited from earlier work
in vivo [16] = settings: Swiss Webster, mouse, ip, plasma concentration
glioblastoma multiforme = settings: daily oral doses (50 and 150 mg/kg) of ABZ tablets mixed with 50% sesame oil; cited from earlier work
[17] = Phase-solubility of pharmaceutical agents with Motor2 (1H NMR); settings: drug solubilized with Motor2; 20 mM sodium phosphate buffer (pH=7.4); phase diagram
[18] = Swiss Webster, mouse, in vivo
[19] = tested on: OVCAR-3 (human ovarian adenocarcinoma); settings: 150 mg/kg of ABZ 3 times a week for 4 weeks through IP; cited from earlier work
[20] = Swiss Webster, mouse, in vivo, iv, 3.2 mg/kg
[21] = mice; repeated oral dosing of 30-40 mg/kg/day for 4-90 days; cited from earlier work

T1 sequence (Q12809 whole entry): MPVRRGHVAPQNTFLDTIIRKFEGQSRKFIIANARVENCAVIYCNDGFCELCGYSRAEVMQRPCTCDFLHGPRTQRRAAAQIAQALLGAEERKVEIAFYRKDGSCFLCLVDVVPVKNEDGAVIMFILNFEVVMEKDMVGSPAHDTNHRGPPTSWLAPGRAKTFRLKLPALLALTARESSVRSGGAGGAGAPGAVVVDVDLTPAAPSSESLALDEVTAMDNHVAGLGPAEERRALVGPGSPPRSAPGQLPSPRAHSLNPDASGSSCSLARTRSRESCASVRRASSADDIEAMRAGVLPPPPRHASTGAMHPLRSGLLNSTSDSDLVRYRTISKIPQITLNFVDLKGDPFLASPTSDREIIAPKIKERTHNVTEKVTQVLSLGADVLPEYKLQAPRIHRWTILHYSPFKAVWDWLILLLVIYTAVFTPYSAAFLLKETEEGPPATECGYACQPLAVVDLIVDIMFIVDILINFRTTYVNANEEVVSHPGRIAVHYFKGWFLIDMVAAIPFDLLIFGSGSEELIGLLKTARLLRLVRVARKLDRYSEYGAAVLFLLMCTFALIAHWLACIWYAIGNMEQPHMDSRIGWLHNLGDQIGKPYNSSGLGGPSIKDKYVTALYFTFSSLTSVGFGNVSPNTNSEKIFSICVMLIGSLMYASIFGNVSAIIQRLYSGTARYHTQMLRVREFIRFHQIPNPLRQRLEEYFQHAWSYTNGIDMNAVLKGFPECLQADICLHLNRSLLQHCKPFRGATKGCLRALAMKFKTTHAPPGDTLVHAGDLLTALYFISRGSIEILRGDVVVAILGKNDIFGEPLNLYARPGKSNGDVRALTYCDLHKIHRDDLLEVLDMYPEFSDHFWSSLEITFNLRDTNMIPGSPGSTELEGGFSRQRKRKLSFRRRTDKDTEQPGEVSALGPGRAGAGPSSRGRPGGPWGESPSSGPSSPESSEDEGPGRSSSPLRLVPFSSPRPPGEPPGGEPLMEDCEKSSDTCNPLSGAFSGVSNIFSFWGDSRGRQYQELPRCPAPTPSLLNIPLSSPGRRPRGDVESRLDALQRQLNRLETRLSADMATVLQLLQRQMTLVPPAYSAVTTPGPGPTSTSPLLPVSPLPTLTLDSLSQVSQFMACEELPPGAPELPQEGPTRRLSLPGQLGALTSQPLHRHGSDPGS

hydroxypropyl-β-CD [HP-β-CD]
interference with the hERG (hERG): significant, non-dose dependent interference

[N-]=[N+]=[N-] [sodium azide]
revertant colonies, positive control [1]: 232 colonies | revertant colonies, positive control (TA100 [2]): 167 colonies

Nc1ccc2cc3ccccc3cc2c1 [2-aminoanthracene]
revertant colonies, positive control (TA1537 strain): 122 colonies | revertant colonies, positive control (TA98 strain): 1084 colonies | revertant colonies, positive control (TA100 [3]): 1345 colonies | revertant colonies, positive control [4]: 27 colonies

O=C(O)CCSC[C@H]1O[C@@H]2O[C@H]3[C@H](O)[C@@H](O)[C@@H](O[C@H]4[C@H](O)[C@@H](O)[C@@H](O[C@H]5[C@H](O)[C@@H](O)[C@@H](O[C@H]6[C@H](O)[C@@H](O)[C@@H](O[C@H]7[C@H](O)[C@@H](O)[C@@H](O[C@H]8[C@H](O)[C@@H](O)[C@@H](O[C@H]9[C@H](O)[C@@H](O)[C@@H](O[C@H]1[C@H](O)[C@H]2O)O[C@@H]9CSCCC(=O)O)O[C@@H]8CSCCC(=O)O)O[C@@H]7CSCCC(=O)O)O[C@@H]6CSCCC(=O)O)O[C@@H]5CSCCC(=O)O)O[C@@H]4CSCCC(=O)O)O[C@@H]3CSCCC(=O)O [sugammadex]
effects on QT interval [5]: no relevant effects

CCC(=O)O[C@H]1[C@H](O[C@@H]2[C@@H](C)[C@H](O[C@H]3C[C@@](C)(OC)[C@@H](O)[C@H](C)O3)[C@@H](C)C(=O)O[C@H](CC)[C@@](C)(O)[C@H](O)[C@@H](C)C(=O)[C@H](C)C[C@@]2(C)O)O[C@H](C)C[C@@H]1N(C)C [erythromycin estolate]
cell death (AK) (HepG2 [6]): 100% | cell death (AK) (HEK293 [7]): 49% | cell viability (MTS) (HepG2 [8]): 10% | cell viability (MTS) (HEK293 [9]): 11%

CC(=O)O[C@H]1C(=O)[C@@]2(C)[C@H]([C@H](OC(=O)c3ccccc3)[C@]3(O)C[C@H](OC(=O)[C@H](O)[C@@H](NC(=O)c4ccccc4)c4ccccc4)C(C)=C1C3(C)C)[C@]1(OC(C)=O)CO[C@@H]1C[C@@H]2O [Taxol]
Ka [10]: 19000 M⁻¹ | Ka [11]: 31000 M⁻¹ | DNA fragmentation and cell death in comparison to untreated (MCF-7): little to no cell death | Solubility enhancement [12]: 2750 fold | DNA fragmentation and cell death in comparison to untreated (Hela): little to no cell death

O=C1N2CN3C(=O)N4CN5C(=O)N6CN7C(=O)N8CN9C(=O)N%10CN%11C(=O)N%12CN%13C(=O)N%14CN1C1C2N2CN%15C(=O)N(CN%16C(=O)N(CN%17C(=O)N(CN%18C(=O)N(CN%19C(=O)N(CN%20C(=O)N(CN1C2=O)C%14C%13%20)C%12C%11%19)C%10C9%18)C8C7%17)C6C5%16)C4C3%15 (stereo not drawn) [CB[7]]
Solubility [13]: ≈ 20 mM

CCCSc1ccc2nc(NC(=O)OC)[nH]c2c1 [Albendazole]
concentration at 5 min (in vivo [14]): 1.91 µg/mL | concentration at 15 min (in vivo [14]): 0.606 µg/mL | IC50 (SK-OV-3 cells): 3.88 µM | daily oral dose required to see an antitumor effect [15]: 300 mg/kg | concentration at 15 min (in vivo [16]): 0.38 µg/mL | concentration at 30 min (in vivo [16]): 0.292 µg/mL | concentration at 2 h (in vivo [16]): 0.122 µg/mL | mouse survival (glioblastoma multiforme): moderate improvements in mouse survival | Solubility enhancement [17]: 149 fold | Solubility enhancement [12]: 226 fold | Absolute Bioavailability (%) [18]: 78% | tmax ([18]; ip, 3.2 mg/kg): 4.98 min | effect on malignant ascites [19]: suppression of malignant ascites | tmax [20]: 4.98 min | signs of toxicity [21]: no significant signs of toxicity
